Measurements: patent publication US11066414B2, “Cot modulators and methods of use thereof” (Gilead Sciences, Inc., priority 2015, dated 2021)
Where two headings read alike, the source gives them in different places.

Tests used:
Human Cot = Human Cot (Homo sapiens (Human), UniProt P41279); assay: High Throughput Cot Biochemical Assay
TNFα = assay: Cot Monocyte TNFα Cell Based Assay
[1] = IC50 HTRF, Cot HTRF (TR-FRET) biochemical assay
[2] = Homo sapiens, Monocyte, read-out: EC50 TNF, LPS-stimulated human monocytes, TNFα

Human Cot, sequence (P41279 30-397): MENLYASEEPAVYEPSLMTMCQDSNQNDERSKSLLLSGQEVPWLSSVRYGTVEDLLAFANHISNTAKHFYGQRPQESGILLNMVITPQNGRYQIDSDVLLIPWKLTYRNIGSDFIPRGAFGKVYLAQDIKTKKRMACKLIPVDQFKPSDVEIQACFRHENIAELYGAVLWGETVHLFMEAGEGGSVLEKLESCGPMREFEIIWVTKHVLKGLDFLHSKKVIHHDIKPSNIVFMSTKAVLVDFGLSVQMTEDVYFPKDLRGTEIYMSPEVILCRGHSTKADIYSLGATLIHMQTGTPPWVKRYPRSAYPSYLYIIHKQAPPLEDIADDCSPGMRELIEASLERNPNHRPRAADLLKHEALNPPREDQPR

Row | SMILES | IC50 (Human Cot; [1]) | EC50 (TNFα; [2]) | further results
1 | Cc1nc(F)ccc1[C@H](Nc1cc(Cl)c2ncc(C#N)c(N[C@@H](c3ccccc3)C3CC3)c2c1)c1cn(C2(C(F)(F)F)CC2)nn1 [Example 611, 8-chloro-4-(((R)-cyclopropyl(phenyl)methyl)-amino)-6-(((S)-(6-fluoro-2-methylpyridin-3-yl)(1-(1-(trifluoromethyl)cyclopropyl)-1H-1,2,3-triazol-4-yl)methyl)amino)quinoline-3-carbonitrile] | 0.02 µM | 0.229 µM | 
2 | CC(C)(C)CNc1c(C#N)cnc2c(Cl)cc(N[C@H](c3cn(C4(C(F)F)CC4)nn3)c3cccc4c(=O)[nH]ccc34)cc12 [Example 765, (S)-8-chloro-6-(((1-(1-(difluoromethyl)cyclopropyl)-1H-1,2,3-triazol-4-yl)(1-oxo-1,2-dihydroisoquinolin-5-yl)methyl)amino)-4-(neopentylamino)quinoline-3-carbonitrile] | 0.004 µM | 0.131 µM | 
3 | Cc1nc(F)ccc1[C@H](Nc1cc(Cl)c2ncc(C#N)c(NCC(C)(C)C)c2c1)c1cn(C2(C(F)(F)F)CC2)nn1 [Example 432, (S)-8-chloro-6-(((6-fluoro-2-methyl-pyridin-3-yl)(1-(1-(trifluoromethyl)-cyclopropyl)-1H-1,2,3-triazol-4-yl)methyl)amino)-4-(neopentylamino)-quinoline-3-carbonitrile] | 0.006 µM | 0.089 µM | 
4 | Cc1nc(Cl)ccc1[C@H](Nc1cc(Cl)c2ncc(C#N)c(Nc3ccc(F)c(Cl)c3)c2c1)c1cn(C2COC2)nn1 [Example 321, (S)-8-chloro-6-(((6-chloro-2-methyl-pyridin-3-yl)(1-(oxetan-3-yl)-1H-1,2,3-triazol-4-yl)methyl)amino)-4-((3-chloro-4-fluorophenyl)amino)quinoline-3-carbonitrile] | 0.01 µM | 0.212 µM | 
5 | N#Cc1cnc2c(Cl)cc(N[C@@H](c3ccc4c(c3)CNC4)c3c[nH]nn3)cc2c1Nc1ccc(F)c(Cl)c1 [Example 55, (S)-8-chloro-4-((3-chloro-4-fluorophenyl)amino)-6-((isoindolin-5-yl(1H-1,2,3-triazol-4-yl)methyl)amino)quinoline-3-carbonitrile] | 0.058 µM | 10.8 µM | 
6 | CC(C)(C)CNc1c(C#N)cnc2c(C#N)cc(N[C@H](c3cn(C4(C(F)F)CC4)nn3)c3cccn4nccc34)cc12 [Example 444] |  |  | IC50 (Human Cot; read-out: IC50 HTRF, Cot HTRF (TR-FRET) biochemical assay): 0.002 µM; EC50 (TNFα; read-out: EC50 TNF, LPS-stimulated human monocytes, TNFα): 0.033 µM
7 | Cc1ncccc1[C@H](Nc1cc(Cl)c2ncc(C#N)c(Nc3cccc(Cl)c3F)c2c1)c1cn(C(C)C)nn1 [Example 245, (S)-8-chloro-4-((3-chloro-2-fluorophenyl)amino)-6-(((1-isopropyl-1H-1,2,3-triazol-4-yl)(2-methylpyridin-3-yl)methyl)amino)quinoline-3-carbonitrile] | 0.002 µM | 0.125 µM | 
8 | CC(C)(C)CNc1c(C#N)cnc2c(C#N)cc(N[C@H](c3cn(C(CF)CF)nn3)c3cccc4ncccc34)cc12 [Example 893, (S)-6-(((1-(1,3-difluoropropan-2-yl)-1H-1H-1,2,3-triazol-4-yl)(quinolin-5-yl)methyl)amino)-4-(neopentyl-amino)quinoline-3,8-dicarbonitrile] |  |  | IC50 (Human Cot; read-out: IC50 HTRF, Cot HTRF (TR-FRET KinEASE) biochemical assay, 400 μM ATP): 0.004 µM; EC50 (TNFα; read-out: EC50 TNF, LPS-stimulated human monocytes, TNFα TR-FRET): 0.099 µM
9 | Cn1cc2c([C@H](Nc3cc(C#N)c4ncc(C#N)c(NCC(C)(C)C)c4c3)c3cn(C4(C(F)(F)F)CC4)nn3)cccc2n1 [Example 558, (S)-6-(((2-methyl-2H-indazol-4-yl)(1-(1-(trifluoromethyl)cyclopropyl)-1H-1,2,3-triazol-4-yl)methyl)amino)-4-(neopentyl-amino)quinoline-3,8-dicarbonitrile] | 0.003 µM | 0.072 µM | 
10 | Cc1nc(F)ccc1[C@@H](Nc1cc(Cl)c2ncc(C#N)c(N[C@H](CCC#N)c3ccccc3)c2c1)c1cn(C2CC2)nn1 [Example 438, 8-chloro-4-(((R)-3-cyano-1-phenyl-propyl)amino)-6-(((R)-(1-cyclopropyl-1H-1,2,3-triazol-4-yl)(6-fluoro-2-methylpyridin-3-yl)methyl)amino)-quinoline-3-carbonitrile] | 0.473 µM | 1 µM | 
